The values that follow come from the NIST ThermoML archive (doi:10.1021/je3010535).

Data set [1] is described as follows: Henry's Law constant (molality scale); of the first substance listed, at infinite dilution; mn = molality of the nth substance listed, in mol/kg. Particulars: Liquid, Chromatography, m1 = 0.
Data set [2] is described as follows: Henry's Law constant (molality scale); of the first substance listed, at infinite dilution; xn = mol fraction of the nth substance listed. To be noted: Liquid, Chromatography, x1 = 0.

“And” between values parts separate entries of the source, which are not always exact repeats. Identical values can stand only once. ± gives the expanded uncertainty stated by the source.

As to `c1ccccc1` [benzene] + O, the “Henry's Law constant” value in data set [1] (274.15 K) was 193 ± 58 kPa·kg/mol; in data set [1] (294.65 K) it was 480 kPa·kg/mol and 474 kPa·kg/mol; in data set [1] (296.15 K), 528 ± 160 kPa·kg/mol; in data set [1] (310.15 K), 1190 ± 360 kPa·kg/mol; in data set [1] (313.15 K), 832 ± 250 kPa·kg/mol; in data set [1] (326.15 K), 1410 ± 420 kPa·kg/mol. Also, the “Henry's Law constant” value in data set [1] (331.15 K) is 2240 ± 670 kPa·kg/mol.
In the case of `CCc1ccccc1` [ethylbenzene] + O, the “Henry's Law constant” value amounted to 162 kPa·kg/mol in data set [1] (274.15 K); 533 kPa·kg/mol in data set [1] (296.15 K); 1290 kPa·kg/mol in data set [1] (313.15 K); 2320 kPa·kg/mol in data set [1] (326.15 K); 1830 kPa·kg/mol in data set [1] (331.15 K).
In the case of `ClCC(Cl)Cl` [1,1,2-trichloroethane] + O, the “Henry's Law constant” value in data set [1] (274.15 K) was 16.9 ± 5.1 kPa·kg/mol; in data set [1] (294.65 K), 62 kPa·kg/mol and 60.4 kPa·kg/mol; in data set [1] (296.15 K) it was 65 ± 20 kPa·kg/mol; in data set [1] (310.15 K) it was 148 ± 44 kPa·kg/mol; in data set [1] (320.15 K), 263 ± 79 kPa·kg/mol; in data set [1] (331.15 K), 419 ± 130 kPa·kg/mol.
Take `Cc1cccc(C)c1` [1,3-dimethylbenzene] + O: the “Henry's Law constant” value is 147 ± 59 kPa·kg/mol in data set [1] (274.15 K); 381 kPa·kg/mol and 439 kPa·kg/mol in data set [1] (294.65 K); 457 ± 180 kPa·kg/mol in data set [1] (296.15 K); 1170 ± 470 kPa·kg/mol in data set [1] (313.15 K); 2090 ± 840 kPa·kg/mol in data set [1] (326.15 K); 1810 ± 730 kPa·kg/mol in data set [1] (331.15 K).
Take `ClCCCl` [1,2-dichloroethane] + O: the “Henry's Law constant” value in data set [2] (274.15 K) is 42.9 ± 13 kPa·kg/mol; in data set [2] (294.65 K) it was 98.2 kPa·kg/mol and 102 kPa·kg/mol; in data set [2] (296.15 K) it was 105 ± 32 kPa·kg/mol; in data set [2] (310.15 K), 211 ± 63 kPa·kg/mol; in data set [2] (320.15 K) it was 389 ± 120 kPa·kg/mol; in data set [2] (331.15 K), 517 ± 160 kPa·kg/mol.
Regarding `Clc1cccc(Cl)c1Cl` [1,2,3-trichlorobenzene] + O, the “Henry's Law constant” value is 17.8 ± 5.3 kPa·kg/mol in data set [2] (274.15 K); 56.4 kPa·kg/mol and 54.8 kPa·kg/mol in data set [2] (294.65 K); 63 ± 19 kPa·kg/mol in data set [2] (296.15 K); 124 ± 37 kPa·kg/mol in data set [2] (310.15 K); 199 ± 60 kPa·kg/mol in data set [2] (320.15 K); 324 ± 97 kPa·kg/mol in data set [2] (331.15 K).
Consider `O=[N+]([O-])c1ccccc1` [nitrobenzene] + O, for which the “Henry's Law constant” value was 0.175 ± 0.053 kPa·kg/mol in data set [2] (274.15 K); 1.06 kPa·kg/mol and 1.11 kPa·kg/mol in data set [2] (294.65 K); 2.58 ± 0.78 kPa·kg/mol in data set [2] (296.15 K); 4.13 ± 1.2 kPa·kg/mol in data set [2] (310.15 K); 8.57 ± 2.6 kPa·kg/mol in data set [2] (320.15 K); 17.6 ± 5.3 kPa·kg/mol in data set [2] (331.15 K).
As to `BrCBr` [dibromomethane] + O, the “Henry's Law constant” value in data set [2] (274.15 K) was 24 ± 7.2 kPa·kg/mol; in data set [2] (294.65 K), 67.5 kPa·kg/mol and 64.7 kPa·kg/mol; in data set [2] (296.15 K) it was 72.9 ± 22 kPa·kg/mol; in data set [2] (310.15 K), 154 ± 46 kPa·kg/mol; in data set [2] (320.15 K), 278 ± 83 kPa·kg/mol; in data set [2] (331.15 K), 444 ± 130 kPa·kg/mol.
For the molecule `CC=C(Cl)Cl` [1,1-dichloro-1-propene] + O, the “Henry's Law constant” value was 556 ± 170 kPa·kg/mol in data set [2] (274.15 K); 1480 kPa·kg/mol and 1360 kPa·kg/mol in data set [2] (294.65 K); 1460 ± 440 kPa·kg/mol in data set [2] (296.15 K); 3190 ± 960 kPa·kg/mol in data set [2] (313.15 K); 5570 ± 1700 kPa·kg/mol in data set [2] (326.15 K).
Turning to `ClC(Cl)C(Cl)(Cl)Cl` [pentachloroethane] + O, the “Henry's Law constant” value in data set [2] (274.15 K) was 43.4 ± 17 kPa·kg/mol; in data set [2] (294.65 K), 133 kPa·kg/mol and 141 kPa·kg/mol; in data set [2] (296.15 K), 163 ± 65 kPa·kg/mol; in data set [2] (310.15 K) it was 268 ± 110 kPa·kg/mol; in data set [2] (313.15 K) it was 471 ± 190 kPa·kg/mol; in data set [2] (320.15 K) it was 505 ± 200 kPa·kg/mol. The “Henry's Law constant” value in data set [2] (326.15 K) amounted to 1070 ± 430 kPa·kg/mol; in data set [2] (331.15 K) it was 989 ± 400 kPa·kg/mol.
For the molecule `ClC(Cl)Br` [bromodichloromethane] + O, the “Henry's Law constant” value in data set [2] (274.15 K) was 60.5 ± 18 kPa·kg/mol; in data set [2] (294.65 K) it was 165 kPa·kg/mol and 162 kPa·kg/mol; in data set [2] (296.15 K) it was 172 ± 51 kPa·kg/mol; in data set [2] (310.15 K) it was 347 ± 100 kPa·kg/mol; in data set [2] (331.15 K) it was 973 ± 290 kPa·kg/mol.
Consider `C=CCl` [chloroethene] + O, for which the “Henry's Law constant” value in data set [2] (274.15 K) was 1140 ± 340 kPa·kg/mol; in data set [2] (313.15 K) it was 4200 ± 1300 kPa·kg/mol; in data set [2] (326.15 K), 6500 ± 1900 kPa·kg/mol.
As to `C=CCCl` [3-chloro-1-propene] + O, the “Henry's Law constant” value in data set [2] (274.15 K) came to 255 ± 76 kPa·kg/mol; in data set [2] (313.15 K), 1350 ± 410 kPa·kg/mol; in data set [2] (326.15 K), 3170 ± 950 kPa·kg/mol.
